From patent US11026925B2, “Angiotensin II receptor antagonist metabolite and NEP inhibitor composite and preparation method thereof” (SHENZHEN SALUBRIS PHARMACEUTICALS CO. LTD, priority 2016, dated 2021)
Structures can show the parent of a compound that is named as a salt.

Assays:
[1] = test system: animal model with heart failure (ligation of left anterior descending coronary artery); test: anti-heart failure activity (short term, acute) in animal model (rat); assay type: in vivo; conditions: for mAP / mLVP: 7 days before and 3 days after ligation, measured Day 11; for improvement effect on mAP and mLVP / effect on lowering blood pressure compared with untreated animal group: short-term administration, rat
Experimental: The animal model with heart failure using ligation of left anterior descending coronary artery was prepared, the therapeutic drug to the modeling animal was administrated by pre-gavage, once per day for 7 continuous days, and was continuously administrated for three days after successful modeling.
SD male rats aged 6-week old;
Pre-test preparation: All animals were divided into 5 groups by randomized blocks, 6 rats in each group, and the animals were acclimated for 3 days before test treatment; Experimental process: Therapeutic drug was given to the test animals by pre-gavage, once per day for 7 continuous days. Operation was conducted on Day 8, the animals were anesthetized, trachea was connected to a respirator, electrocardiograph (ECG) was connected for real-time recording, thoracic cavity was opened between the 3rd and 4th ribs, left anterior descending coronary artery was ligated, ST segment elevation of ECG indicated successful ligation, the thoracic cavity was closed, and the skin was sutured;
The animals were anesthetized on Day 11, ECG was measured, and then arterial pressure and left ventricular pressure were measured by carotid artery intubation.

[2] = singly used as medication; cited from earlier work
[3] = test system: animal model with heart failure (ligation of left anterior descending coronary artery); test: anti-heart failure activity (long term, chronic) in animal model (rat); assay type: in vivo
[4] = test system: patients with heart failure; conditions: compared with the enalapril treatment group; cited from earlier work
[5] = Flowability (angle of repose, bulk density); assay type: physicochemical
[6] = Hygroscopicity (plain sample) at RH 75% and RH 85%; assay type: physicochemical
[7] = 30 mg/kg gavage once per day for 4 weeks
[8] = samples crushed to particle size distribution similar to LCZ696
[9] = 68 mg/kg gavage once per day for 4 weeks

Compound: CCCCc1nc(Cl)c(C(=O)O)n1Cc1ccc(-c2ccccc2-c2nnn[nH]2)cc1 [EXP3174]
- mAP ([1]; 30 mg/kg gavage once per day): 106 mmHg
- mLVP ([1]; 30 mg/kg gavage once per day): 61 mmHg
- improvement effect on mAP and mLVP / effect on lowering blood pressure compared with untreated animal group [1]: not significant
- bioavailability [2]: low bioavailability
- Ejection fraction [3, 7]: 47.9%
- Heart rate [3, 7]: 427.8 beats/min
- Myocardial fibrosis [3, 7]: 62.89%
- Thickness of heart wall [3, 7]: 0.136 cm

Compound: CCCCC(=O)N(Cc1ccc(-c2ccccc2-c2nnn[n-]2)cc1)[C@H](C(=O)[O-])C(C)C.CCOC(=O)[C@H](C)C[C@@H](Cc1ccc(-c2ccccc2)cc1)NC(=O)CCC(=O)[O-].O.[Na+].[Na+].[Na+] [LCZ696]
- reduction of hospitalization rate of patients with heart failure [4]: 21%
- electrostatic phenomenon of powder ([5]; powder property test): electrostatic phenomenon
- flowability (in words) ([5]; powder property test): hardly flowable
- Angle of repose [5, 8]: 57.35 °
- Bulk density [5, 8]: 0.527 g/mL
- mAP ([1]; 68 mg/kg gavage once per day): 78 mmHg
- mLVP ([1]; 68 mg/kg gavage once per day): 44 mmHg
- state of test samples at the end of the hygroscopicity experiment ([6]; RH 75% and RH 85%, end of experiment): completely deliquescent
- water content, RH 75% Day 0 ([6]; RH 75%, Day 0, plain sample): 4.9%
- water content, RH 85% Day 0 ([6]; RH 85%, Day 0, plain sample): 4.9%
- Ejection fraction [3, 9]: 70.6%
- Heart rate [3, 9]: 412.9 beats/min
- Myocardial fibrosis [3, 9]: 11.51%

Compound: CCOC(=O)[C@H](C)C[C@@H](Cc1ccc(-c2ccccc2)cc1)NC(=O)CCC(=O)O [AHU377 calcium salt, AHU377 (Sacubitril, CAS: 149709-62-6)]
- mAP ([1]; 30 mg/kg gavage once per day): 104 mmHg
- mLVP ([1]; 30 mg/kg gavage once per day): 63 mmHg
- improvement effect on mAP and mLVP / effect on lowering blood pressure compared with untreated animal group [1]: not significant
- Ejection fraction [3, 7]: 53.3%
- Heart rate [3, 7]: 378.9 beats/min
- Myocardial fibrosis [3, 7]: 54.88%
- Thickness of heart wall [3, 7]: 0.137 cm
